This passage reports Ki and ED50 results from patent US4937249A, “Imide derivatives and their pharmaceutical use” (Sumitomo Pharmaceuticals Company, Limited, priority 1987, dated 1990).

Read-outs that look alike come from different tables or passages of the source.

For one test, the target named is T1, dopamine D2 receptor (Bos taurus, UniProt P20288).
T1 construct: from tissue; host or cells: bovine corpus striatum, washed membrane fractions
In words: Dopamine D2 receptor binding assay (displacement of [3H] spiperone, membrane fractions of corpus striatum). Also noted: species or system bovine. The procedure: Fresh corpus striatum taken out from bovine brain was homogenized in a 20-fold dilution of Tris-HCl buffer solution (pH, 7.4; 0.05 M) and centrifuged (50,000×g) for 10 minutes to give the membrane fractions, which were washed with the same volume of the buffer solution twice to give the membrane fractions for assay.
Number of bindings specific to the D2 receptor in [^3 H] spiperone in a designed concentration of the test compound was measured according to the following equation and the IC50 and Ki was determined thereon on the basis of a hill plot: [formula] l: concentration of [^3 H] spiperone on assay KD : dissociation constant of [^3 H] spiperone

Test [1] relates to climbing behavior induced by apomorphine in mice. In words: Anti-climbing activity (climbing behavior induced by apomorphine in mice). Type of test: in vivo, mice (dd strain male). The conditions noted are these: Mus musculus, po. An excerpt:
This activity was examined through the anticlimbing behavior test, i.e. the test for suppressing the climbing behavior induced by apomorphine in mice. A designed amount of the test compound was orally administered to several groups of dd strain male mice (bodyweight, 20 to 25 g; one group, 5 mice), and each of the animals was charged in an individual column cage of 12 cm in diameter and 14 cm in height having metal poles (each pole, 2 mm in diameter) vertically installed and arranged along the periphery with intervals of 1 cm. […]
0 All the paws were on the floor
1 Only forepaws seized the pole of the cage
2 All the paws seized the pole of the cage;
climbing behavior observed discontinu-
3 Continuous climbing behavior observed

The test system of another test is 5-HT2 receptors. Nature of the test: Anti-head twitching activity (anti-5-HT2 activity; 5-methoxytryptamine-induced head twitches in mice). Type of test: in vivo, mice (dd strain male). The settings on record: Mus musculus, po, nialamide 30 mg/kg i.p., 5-MT 2.5 mg/kg i.v., head twitches for 3 minutes. As for the experimental part: It is known that the efficacy on the negative symptom can be evaluated through anti-5-hydroxytryptamine 2 (5-HT2) activity. […] Based on the above knowledges, test for measurement of head twitches in mice was carried out for evaluation of the anti-5-HT2 activity.

Setting [2] is: 1 hr, apomorphine 1.0 mg/kg s.c., mice, read-out: ED50 (p.o.) 1 hr.

T1 sequence (P20288 whole entry): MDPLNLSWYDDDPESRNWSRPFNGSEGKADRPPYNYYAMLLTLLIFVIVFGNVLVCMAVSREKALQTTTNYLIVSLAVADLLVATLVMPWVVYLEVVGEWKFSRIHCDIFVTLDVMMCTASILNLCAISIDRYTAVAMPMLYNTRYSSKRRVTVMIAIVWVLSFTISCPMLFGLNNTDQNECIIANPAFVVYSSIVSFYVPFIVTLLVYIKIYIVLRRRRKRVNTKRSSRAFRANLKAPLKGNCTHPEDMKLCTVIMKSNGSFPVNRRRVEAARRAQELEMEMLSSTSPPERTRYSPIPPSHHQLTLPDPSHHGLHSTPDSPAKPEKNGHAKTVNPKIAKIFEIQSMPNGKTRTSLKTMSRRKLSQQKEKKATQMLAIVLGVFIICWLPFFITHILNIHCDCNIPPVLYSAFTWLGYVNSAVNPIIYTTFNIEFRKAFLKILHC

The Ki is the dissociation constant of the complex between target and ligand, obtained from inhibition or displacement. In general, ED50 refers to the dose that gives a 50% effect, or the effect in half of the subjects. For `O=C1CC2(CCCC2)CC(=O)N1CCCCN1CCN(c2nsc3ccccc23)CC1` [Tiaspirone, 8-[4-(3-benzisothiazolyl)-1-piperazinylbutyl]-8-azaspiro[4,5]decane-7,9-dione], on dopamine D2 receptor, the Ki is 0.5 nM. The ED50 in test [1] (setting [2]) worked out at 9.4 mg/kg; in the test with 5-HT2 receptors, 4 mg/kg.
For `O=C1C2CCCCC2C(=O)N1CCCCN1CCC(c2noc3cc(F)ccc23)CC1` (stereo not drawn) [Example 1, N-[4-{4-(6-Fluoro-1,2-benzisoxazol-3-yl)piperidinyl}butyl]cyclohexane-1,2-dicarboximide], at dopamine D2 receptor ([3H] spiperone 1 nM, 37° C., 30 minutes, bovine corpus striatum membranes, read-out: Ki), the Ki was found to be 0.37 nM. Also, the ED50 is 0.92 mg/kg in test [1] (setting [2]); 2.3 mg/kg in test [1] (4 hrs, apomorphine 1.0 mg/kg s.c., mice, read-out: ED50 (p.o.) 4 hrs); 0.3 to 1 mg/kg in the test with 5-HT2 receptors.
For `CN(C)CCCN1c2ccccc2Sc2ccc(Cl)cc21` [Chlorpromazine, 2-chloro-10-(3-dimethylaminopropyl)-phenothiazine], the ED50 in test [1] (1 h, read-out: ED50 (p.o.) 1 hr) amounted to 1.8 mg/kg; in test [1] (4 h, read-out: ED50 (p.o.) 4 hrs), 8.8 mg/kg.
